According to patent publication US9067948B2 (Nimbus Iris, Inc., priority 2012, dated 2015):
pIC50: −log10 of the molar value.

Molecular target: T1, IRAK-4 (Homo sapiens, UniProt Q9NWZ3)
T1 sequence (Q9NWZ3 1-460): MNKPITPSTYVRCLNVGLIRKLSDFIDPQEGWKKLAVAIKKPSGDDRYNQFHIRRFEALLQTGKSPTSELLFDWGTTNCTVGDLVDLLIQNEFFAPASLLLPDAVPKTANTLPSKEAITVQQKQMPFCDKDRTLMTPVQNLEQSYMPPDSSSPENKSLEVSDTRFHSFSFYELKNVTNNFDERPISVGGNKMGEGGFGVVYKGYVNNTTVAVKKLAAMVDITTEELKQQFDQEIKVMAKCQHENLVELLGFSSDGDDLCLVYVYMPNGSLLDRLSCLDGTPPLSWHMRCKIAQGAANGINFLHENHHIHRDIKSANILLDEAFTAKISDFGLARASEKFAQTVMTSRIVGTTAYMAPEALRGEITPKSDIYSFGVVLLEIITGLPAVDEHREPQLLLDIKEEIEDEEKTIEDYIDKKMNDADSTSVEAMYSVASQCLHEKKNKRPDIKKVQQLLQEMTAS
Assay: IRAK-4 activity inhibition assay (Caliper)
Type: biochemical
Details: 3.5 nM IRAK4, 37 μM ATP, 1.5 μM Peptide 8, 28° C. 40 minutes
Description: A 1× kinase base buffer was prepared from 50 mM HEPES, pH 7.5 and 0.0015% Brij-35. A stop buffer was prepared from 100 mM HEPES, pH 7.5, 0.015% Brij-35, 0.2% Coating Reagent #3, and 50 mM EDTA.
Test compound was diluted to 50× of the final desired highest inhibitor concentration in reaction by 100% DMSO. 100 ul of this compound dilution was transferred to a well in a 96-well plate.
Test compound was serially diluted by transferring 30 μl to 60 μl of 100% DMSO in the next well and so forth for a total of 10 concentrations. 100 μl of 100% DMSO was added to two empty wells for no compound control and no enzyme control in the same 96-well plate.
A new 96-well plate was marked as intermediate plate. 5 μl of compound serial dilution was transferred from source plate to the corresponding wells of the intermediate plate. 45 μl of 1× kinase base buffer (KB buffer) was added to each well of the intermediate plate. The intermediate plate was placed for 10 min on a shaker.
5 μl of each well was transferred from the 96-well intermediate plate to a 384-well plate in duplicates. For example, A1 of the 96-well plate is transferred to A1 and A2 of the 384-well plate. A2 of the 96-well plate is transferred to A3 and A4 of the 384-well plate, and so on.
IRAK4 and DTT in 1× kinase base buffer was added. The 2.5× enzyme mix contained 8.8 nM IRAK4 and 5 mM DTT.
Peptide 8, ATP, MgCl2 and MnCl2 were added in the 1× kinase base buffer. The 2.5× peptide mix contained 3.75 μM peptide 8, 92.5 μM ATP, 12.5 mM MgCl2 and 2.5 mM MnCl2.
Assay plate already contained 5 μl of compound in 10% DMSO. Added 10 μl of 2.5× enzyme solution to each well of the 384-well assay plate, except no enzyme control wells. The final concentration of IRAK4 in reaction was 3.5 nM. Added 10 μl of 1× kinase base buffer to no enzyme control wells in the assay plate. Incubated at room temperature for 10 min.
Added 10 μl of 2.5× peptide solution to each well of the 384-well assay plate. The final concentration of Peptide 8 and ATP was 1.5 μM and 37 μM, respectively. Incubated at 28° C. for 40 minutes. Added 25 μl of stop buffer to stop reaction. Collected data on Caliper.
Copied conversion % data from Caliper program. Converted conversion % values to percent inhibition values. Percent inhibition=(max−conversion %)/(max−min)*100, where “max” means the conversion % of DMSO control and “min” means the conversion % of no enzyme control.

SMILES	pIC50
CN(C)[C@H]1CC[C@H](Oc2ccnc3sc4c(c23)CCC4)CC1 [Compound I-1]	≥ 5.30
c1cc(N[C@H]2CC[C@H](N3CCOCC3)CC2)c2c3c(sc2n1)CCC3 [Compound I-2]	≥ 5.30
c1cc(O[C@H]2CC[C@H](N3CCOCC3)CC2)c2c3c(sc2n1)CCC3 [Compound I-3]	≥ 5.30
CN(C)[C@H]1CC[C@H](Nc2ccnc3sc4c(c23)CCC4)CC1 [Compound I-4, 1-N,1-N-dimethyl-4-N-[7-thia-9-azatricyclo[6.4.0.0^[2,6]]dodeca-1(12),2(6),8,10-tetraen-12-yl]cyclohexane-1,4-diamine]	≥ 5.30
N[C@H]1CC[C@H](Nc2ccnc3sc4c(c23)CCC4)CC1 [Compound I-205]	≥ 5.30
CN[C@H]1CC[C@H](Nc2ccnc3sc4c(c23)CCC4)CC1 [Compound I-206, 1-N-methyl-4-N-[7-thia-9-azatricyclo[6.4.0.0[2,6]]dodeca-1(12),2(6),8,10-tetraen-12-yl]cyclohexane-1,4-diamine]	≥ 5.30
CN(CC(=O)N1CCCC1)[C@H]1CC[C@H](Nc2ccnc3sc4c(c23)CCC4)CC1 [Compound I-207, 2-[methyl[4-([7-thia-9-azatricyclo[6.4.0.0[2,6]]dodeca-1(8),2(6),9,11-tetraen-12yl]amino)cyclohexyl]amino]-1-(pyrrolidin-1-yl)ethan-1-one]	≥ 5.30
Cn1cc(Nc2cc(N[C@H]3CC[C@H](N4CCOCC4)CC3)c3c4c(sc3n2)CCC4)cn1 [Compound I-208, N2-(1-methyl-1H-pyrazol-4-yl)-N4-((1r,4r)-4-morpholinocyclohexyl)-6,7-dihydro-5H-cyclopenta[4,5]thieno[2,3-b]pyridine-2,4-diamine]	4.30 to 4.70
